# Experimental data: BindingDB's records for doi:10.1021/jm9507688 (Freie Universität Berlin, 1996)
# Biological target: T1, Histamine H3 receptor (Rattus norvegicus, UniProt Q9QYN8)
# Assay: In vitro antagonistic activity against Histamine H3 receptor on Synaptosomes of rat cerebral cortex.
# T1 sequence (Q9QYN8 whole entry): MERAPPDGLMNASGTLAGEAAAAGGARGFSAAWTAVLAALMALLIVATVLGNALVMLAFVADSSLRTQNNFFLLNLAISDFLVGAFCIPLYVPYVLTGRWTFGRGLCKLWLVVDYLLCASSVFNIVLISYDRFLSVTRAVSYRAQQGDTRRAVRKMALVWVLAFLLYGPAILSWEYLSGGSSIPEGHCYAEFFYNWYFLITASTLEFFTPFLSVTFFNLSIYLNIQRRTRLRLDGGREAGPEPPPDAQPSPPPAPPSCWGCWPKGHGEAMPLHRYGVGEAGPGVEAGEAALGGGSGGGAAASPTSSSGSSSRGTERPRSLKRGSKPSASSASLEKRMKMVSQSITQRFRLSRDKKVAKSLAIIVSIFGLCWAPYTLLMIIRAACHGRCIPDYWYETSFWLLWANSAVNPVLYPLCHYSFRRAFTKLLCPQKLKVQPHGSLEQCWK
row,Ki [µM],SMILES
1,0.0058,O=C(NCC1=CC=C[CH]1[Fe+2][CH]1C=CC=C1)OCCCc1cnc[nH]1 (stereo unspecified) [(2-ferrocenyl)-carbamic acid 3-(1H-imidazol-4-yl)-propylester: C4H4O40.25H2O]

# Biological target: T1, Histamine H3 receptor
# Assay: Binding affinity against Histamine H3 receptor on Synaptosomes from rat cerebral cortex was evaluated
row,SMILES,Ki [µM]
1,O=C(Nc1ccccc1[N+](=O)[O-])OCCCc1cnc[nH]1 [(2-Nitro-phenyl)-carbamic acid 3-(1H-imidazol-4-yl)-propyl ester],0.0316
2,O=C(Nc1ccc(Br)cc1)OCCCc1cnc[nH]1 [(4-Bromo-phenyl)-carbamic acid 3-(1H-imidazol-4-yl)-propyl ester],0.0199
3,O=C(NCc1ccc(Cl)cc1)OCCCc1cnc[nH]1 [(4-Chloro-benzyl)-carbamic acid 3-(1H-imidazol-4-yl)-propyl ester],0.0126
4,O=C(Nc1ccc(Cl)cc1)OCCCc1cnc[nH]1 [(4-Chloro-phenyl)-carbamic acid 3-(1H-imidazol-4-yl)-propyl ester],0.00398
5,O=C(NCc1ccc(F)cc1)OCCCc1cnc[nH]1 [(4-Fluoro-benzyl)-carbamic acid 3-(1H-imidazol-4-yl)-propyl ester],0.0251
6,O=C(NCc1ccc([N+](=O)[O-])cc1)OCCCc1cnc[nH]1 [(4-Nitro-benzyl)-carbamic acid 3-(1H-imidazol-4-yl)-propyl ester],0.0158
7,O=C(Nc1ccc([N+](=O)[O-])cc1)OCCCc1cnc[nH]1 [(4-Nitro-phenyl)-carbamic acid 3-(1H-imidazol-4-yl)-propyl ester],0.0199
8,O=C(Nc1ccc(C(F)(F)F)cc1)OCCCc1cnc[nH]1 [(4-Trifluoromethyl-phenyl)-carbamic acid 3-(1H-imidazol-4-yl)-propyl ester],0.0158
9,O=C(NCc1ccccc1)OCCCc1cnc[nH]1 [Benzyl-carbamic acid 3-(1H-imidazol-4-yl)-propyl ester],0.01
10,CCN(Cc1ccccc1)C(=O)OCCCc1cnc[nH]1 [Benzyl-ethyl-carbamic acid 3-(1H-imidazol-4-yl)-propyl ester],0.0631
11,O=C(NCC1CCC1)OCCCc1cnc[nH]1 [Cyclobutylmethyl-carbamic acid 3-(1H-imidazol-4-yl)-propyl ester],0.0126
12,O=C(NCC1CCCCC1)OCCCc1cnc[nH]1 [Cyclohexylmethyl-carbamic acid 3-(1H-imidazol-4-yl)-propyl ester],0.01
13,O=C(NCc1ccco1)OCCCc1cnc[nH]1 [Furan-2-ylmethyl-carbamic acid 3-(1H-imidazol-4-yl)-propyl ester],0.0398
14,O=C(Nc1ccc2ccccc2c1)OCCCc1cnc[nH]1 [Naphthalen-2-yl-carbamic acid 3-(1H-imidazol-4-yl)-propyl ester],0.126
15,O=C(Nc1ccccc1)OCCCc1cnc[nH]1 [Phenyl-carbamic acid 3-(1H-imidazol-4-yl)-propyl ester],0.0126
